Laboratory results taken from patent CN101784271A, “孕激素和(6s)-5-甲基四氢叶酸的组合在治疗子宫内膜异位症并同时减轻治疗副作用以及降低怀孕初期的先天畸形的风险中的应用” (priority 2007, dated 2008).

Legend:
[1] = test system: ovulation (排卵); conditions: daily dose; no test or source given; cited from earlier work
[2] = attributed to partial androgenic action, not progestational activity; cited from earlier work
[3] = cited from earlier work
[4] = Clinical study in endometriosis patients, pain by visual analogue scale (VAS); assay type: in vivo, human; conditions: over 6 months
[5] = 2 mg dienogest daily, 24 weeks, endometriosis patients

CC(=O)O[C@]1(C(C)=O)CC[C@H]2[C@@H]3C=C(Cl)C4=CC(=O)CC[C@]4(C)[C@H]3CC[C@@]21C [醋酸氯地孕酮]
ovulation inhibition dose [1]: 1.7 mg

C#C[C@]1(O)CC[C@H]2[C@@H]3CCC4=CC(=O)CC[C@@H]4[C@H]3CC[C@@]21CC [左炔诺孕酮]
effect on bone metabolism [2]: 对骨代谢的正面影响

C[C@]12CCC3=C4CCC(=O)C=C4CC[C@H]3[C@@H]1CC[C@@]2(O)CC#N [DNG]
intolerable menstruation [3, 5]: 没有报道不可耐受的月经 | patients reporting irregular menstruation [3, 5]: ≤ 90% | treatment result compared with danazol or GnRH agonist [3, 5]: 相当 | change in pain (VAS) at end of treatment compared with start of study ([4]; DNG oral 2 mg/d (124 patients) or LA 3.75 mg s.c. every 4 weeks (128 patients), endometriosis diagnosed by laparoscopy): -47.5 mm | statistical comparison of efficacy, DNG versus LA ([4]; DNG oral 2 mg/d vs LA 3.75 mg s.c. every 4 weeks): 不劣于LA

CC(=O)O[C@]1(C(C)=O)CC[C@H]2[C@@H]3C=C(Cl)C4=CC(=O)[C@@H]5C[C@@H]5[C@]4(C)[C@H]3CC[C@@]21C [醋酸环丙孕酮]
ovulation inhibition dose [1]: 1 mg

C#C[C@]1(O)CC[C@H]2[C@@H]3CCC4=Cc5oncc5C[C@]4(C)[C@H]3CC[C@@]21C [达那唑]
side effects of standard endometriosis treatment ([3]; human, in vivo): 显著的雄激素效应
